Results as given in patent US20250368668A1, “CRYSTALLINE FORMS AND SALT FORMS OF A CARDIAC P2X RECEPTOR AGONIST, PHARMACEUTICAL COMPOSITIONS, AND THEIR USE IN TREATING MEDICAL DISORDERS” (Cornovus Pharmaceuticals, Inc., priority 2024, published 2025).

Experiments:
Type in all cases: physicochemical
[1] = Solubility in water of sodium salts of Compound I; conditions: read-out: Aqueous Solubility of Sodium Salt Form of Compound I
Procedure: Sodium salts of Compound I described herein above were tested for solubility in water.

[2] = Solid-state stability of crystalline form on storage (form checked by X-ray powder diffraction); conditions: for crystalline form after extended storage: X-ray powder diffraction
Procedure: A sample of Form A crystalline hydrate of Compound I was subjected to stability analysis for 1 week at a temperature of 25° C. at 60% relative humidity.
Stability of Form B crystalline hydrate of compound I to extended storage was evaluated by storing samples of Form B crystalline hydrate of compound I for twelve months at either 5° C. or 25° C., and then subjecting samples of the stored material to X-ray powder diffraction analytical analysis.

[3] = Hygroscopicity by dynamic vapor sorption
Procedure: Form A crystalline hydrate of compound I was analyzed by X-ray powder diffraction, thermogravimetric analysis, dynamic vapor sorption (to analyze hygroscopicity), and Karl Fischer titration.
The title compound was analyzed for hygroscopicity by dynamic vapor sorption.

Nc1nc(Cl)nc2c1ncn2[C@H]1[C@H](O)[C@H](O)[C@]2(COP(=O)(O)O)C[C@H]12 [Compound I, ((1R,2R,3S,4R,5S)-4-(6-amino-2-chloro-9H-purin-9-yl)-2,3-dihydroxybicyclo[3.1.0]hexan-1-yl)methyl dihydrogen phosphate]
solubility [1]: 3000 µg/mL

Nc1nc(Cl)nc2c1ncn2[C@H]1[C@H](O)[C@H](O)[C@]2(COP(=O)(O)O)C[C@H]12 [Form A crystalline hydrate of Compound I]
crystalline form at the end of the stability study ([2]; 1 week, 25° C., 60% relative humidity): converted to Form B crystalline hydrate of Compound I
increase in weight during the absorption step ([3]; absorption step, FIG. 3, in %): 5.2100
weight loss during the desorption step ([3]; desorption step, FIG. 3): 5.16%

Nc1nc(Cl)nc2c1ncn2[C@H]1[C@H](O)[C@H](O)[C@]2(COP(=O)(O)O)C[C@H]12 [Form B crystalline hydrate of compound I]
relative stability of crystalline forms ([2]; comparison with Form A hydrate and crystalline sodium salt forms): more stable than Form A of crystalline hydrate of compound I and more stable than the crystalline sodium salt forms of compound I
crystalline form after extended storage ([2]; twelve months at 5° C.): remain as Form B crystalline hydrate of compound I
crystalline form after extended storage ([2]; twelve months at 25° C.): remain as Form B crystalline hydrate of compound I
